The record followed here is ChEMBL document CHEMBL1201862, “PubChem BioAssay data set” (2004).

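Tested at 5 concentrations; 48 h exposure; 96-well plates; endpoints linearly interpolated, else capped at highest concentration. GI50: concentration for 50% inhibition of growth.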 Calls of active or inactive are those of the source. Cut-off read from the data, not from the text of the source: active = GI50 up to about 1.1 µM and inactive = higher. A value given as a limit tells only on which side of the number the result lay.

Among the test systems are OVCAR-3; K562; SF-268; NCI-H23; RXF 393; SR; NCI/ADR-RES; MDA-N; LOX IMVI; DU-145; HCT-116; SK-MEL-28; HCC 2998; A498; SK-MEL-5; HT-29; HL-60; BT-549; PC-3; ACHN.
What all share (assay): NCI tumour cell line growth inhibition, 48 h

For the compound `Cc1cc(S(=O)(=O)Nc2nnc3c4ccccc4cnn23)c(S)cc1Cl`, the GI50 with OVCAR-3 was > 86.3 µM (inactive); in the assay on K562, > 100 µM (inactive); in the assay with SF-268, 39.9 µM (inactive); with NCI-H23, 63 µM (inactive); in the assay with RXF 393 it was > 100 µM (inactive); in the assay on SR, > 100 µM (inactive). Besides, the GI50 with NCI/ADR-RES was > 64.7 µM (inactive); in the assay on MDA-N, > 100 µM (inactive); in the assay with LOX IMVI, > 100 µM (inactive); in the assay with DU-145 it was 61.9 µM (inactive); with HCT-116 it was 58.2 µM (inactive); in the assay with SK-MEL-28, > 100 µM (inactive). For the same compound, the GI50 in the assay with HCC 2998 is 42.2 µM (inactive); in the assay on A498, > 85.1 µM (inactive); in the assay with SK-MEL-5, > 81.5 µM (inactive); in the assay with HT-29 it was > 100 µM (inactive); in the assay with HL-60 it was > 100 µM (inactive); with BT-549 it was > 54.5 µM (inactive). Further, the GI50 in the assay with PC-3 and in the assay with ACHN was > 100 µM (inactive) each time.
`Cc1ccc(S(=O)(=O)N/N=C2/CC3CCC4CC2CC34)cc1` (stereo not given): the GI50 in the assay on OVCAR-3 was > 100 µM (inactive); in the assay on K562, 93.5 µM (inactive); with SF-268, > 100 µM (inactive); in the assay on NCI-H23 it was > 100 µM (inactive); in the assay with SR it was > 100 µM (inactive); in the assay on NCI/ADR-RES it was > 100 µM (inactive). Also, the GI50 in the assay on MDA-N, in the assay with LOX IMVI, in the assay with DU-145, in the assay on HCT-116, in the assay with SK-MEL-28 and in the assay with HCC 2998 was > 100 µM (inactive) in each case. Besides, the GI50 in the assay with A498 is > 100 µM (inactive); with SK-MEL-5, 84.7 µM (inactive); in the assay with HT-29 it was > 100 µM (inactive); with HL-60, > 100 µM (inactive); with BT-549, > 100 µM (inactive); with PC-3 it was > 100 µM (inactive). Further, the GI50 with ACHN was > 100 µM (inactive).
In the case of `CNC(=O)OCc1nc(SSC(C)(C)C)n(C)c1COC(=O)NC`, the GI50 with OVCAR-3 was 2.1 µM (inactive); in the assay with K562, 1.94 µM (inactive); in the assay with SF-268, 6.75 µM (inactive); in the assay on NCI-H23 it was 2.71 µM (inactive); in the assay with RXF 393, 1.45 µM (inactive); in the assay with SR, 1.05 µM (active). The GI50 in the assay on NCI/ADR-RES was 5.52 µM (inactive); in the assay on MDA-N, 2.45 µM (inactive); with LOX IMVI, 3.58 µM (inactive); in the assay on DU-145 it was 19.1 µM (inactive); in the assay on HCT-116 it was 1.72 µM (inactive); in the assay with SK-MEL-28 it was 1.84 µM (inactive). For the same compound, the GI50 was 8.91 µM (inactive) in the assay on HCC 2998; 9.38 µM (inactive) in the assay with A498; 5.98 µM (inactive) in the assay on SK-MEL-5; 5.56 µM (inactive) with HT-29; 0.863 µM (active) in the assay with HL-60; 1.47 µM (inactive) in the assay on BT-549. In addition, the figures for the GI50 in the assay on PC-3 and with ACHN were 8.75 µM (inactive) and 2.7 µM (inactive), respectively.
Regarding `N=C(N)N/N=C/c1c(-c2ccc([N+](=O)[O-])cc2)nc2sc(Cl)cn12`, the GI50 with OVCAR-3 was 1.27 µM (inactive); with K562 it was 0.239 µM (active); in the assay on SF-268 it was 1.42 µM (inactive); in the assay with NCI-H23, 0.841 µM (active); in the assay with RXF 393 it was 0.67 µM (active); in the assay on SR it was 0.0731 µM (active). For the same compound, the GI50 in the assay with NCI/ADR-RES was 1.46 µM (inactive); in the assay on MDA-N, 0.54 µM (active); in the assay on LOX IMVI, 0.871 µM (active); in the assay on DU-145 it was 1.11 µM (active); in the assay on HCT-116, 0.223 µM (active); in the assay with SK-MEL-28, 1.69 µM (inactive). Further, the GI50 in the assay with HCC 2998 is 0.26 µM (active); in the assay with A498, 0.873 µM (active); in the assay on SK-MEL-5, 0.891 µM (active); in the assay with HT-29, 1.18 µM (inactive); in the assay with HL-60, 1.38 µM (inactive); in the assay with BT-549, 1.8 µM (inactive). The GI50 was 1.12 µM (active) in the assay with PC-3 and 1.27 µM (inactive) in the assay on ACHN.
For `CC(=O)O[C@H]1C[C@]2(O)[C@@H]3CC[C@@H]4C[C@@H](O)CC[C@]4(C)[C@H]3CC[C@]2(C)[C@H]1C1=CC(=O)OC1`, the GI50 is 0.0389 µM (active) in the assay on OVCAR-3; 0.103 µM (active) in the assay on K562; 0.0429 µM (active) with SF-268; 0.0366 µM (active) in the assay on NCI-H23; 0.0324 µM (active) with RXF 393; 0.0315 µM (active) in the assay with SR. Besides, the GI50 in the assay with NCI/ADR-RES was 0.074 µM (active); in the assay on MDA-N it was 0.0867 µM (active); with LOX IMVI it was 0.0585 µM (active); in the assay on DU-145, 0.0316 µM (active); with HCT-116, 0.033 µM (active); in the assay on SK-MEL-28, 0.324 µM (active). Besides, the GI50 is 0.161 µM (active) in the assay with HCC 2998; 0.0977 µM (active) with A498; 0.0318 µM (active) in the assay with SK-MEL-5; 0.0986 µM (active) with HT-29; 0.0382 µM (active) with HL-60; 0.0284 µM (active) in the assay on BT-549. Further, the GI50 with PC-3 is 0.0662 µM (active); with ACHN, 0.031 µM (active).
With `C[C@H](CCC(=O)NCCS(=O)(=O)O)[C@H]1CC[C@H]2[C@@H]3CC[C@@H]4C[C@H](O)CC[C@]4(C)[C@H]3CC[C@]12C`, the GI50 is > 100 µM (inactive) in the assay with OVCAR-3; > 100 µM (inactive) in the assay with K562; > 100 µM (inactive) in the assay on SF-268; > 100 µM (inactive) in the assay with NCI-H23; > 100 µM (inactive) with RXF 393; 28.7 µM (inactive) in the assay on SR. Also, the GI50 in the assay with NCI/ADR-RES, in the assay on MDA-N, in the assay on LOX IMVI, in the assay with DU-145, in the assay on HCT-116 and with SK-MEL-28 was > 100 µM (inactive) throughout. The GI50 in the assay on HCC 2998, in the assay with A498, with SK-MEL-5, with HT-29, in the assay on HL-60 and in the assay on BT-549 was > 100 µM (inactive) each time. Moreover, the GI50 in the assay with PC-3 and in the assay on ACHN was > 100 µM (inactive) each time.
On to `Cn1c(=O)c2c(nc3n2CCC(=O)N3CCCCl)n(C)c1=O`, for which the GI50 in the assay on OVCAR-3, in the assay with K562, in the assay on SF-268, with NCI-H23, with SR and in the assay on NCI/ADR-RES was > 100 µM (inactive) in each case. In addition, the GI50 with MDA-N, in the assay on LOX IMVI, with DU-145, with HCT-116, with SK-MEL-28 and in the assay with HCC 2998 was > 100 µM (inactive) throughout. The GI50 in the assay on A498, in the assay on SK-MEL-5, in the assay on HT-29, in the assay on HL-60, in the assay on BT-549 and in the assay on PC-3 was > 100 µM (inactive) each time. For the same compound, the GI50 with ACHN is > 100 µM (inactive).
Take `COc1ccc(P2(=S)OCCOP(=S)(c3ccc(OC)cc3)S2)cc1` (stereo not given): the GI50 in the assay on OVCAR-3 was 2.52 µM (inactive); with K562, 2.51 µM (inactive); in the assay with SF-268, 3.99 µM (inactive); in the assay on NCI-H23, 4.7 µM (inactive); in the assay with SR, 3.6 µM (inactive); in the assay on NCI/ADR-RES it was 4.41 µM (inactive). Besides, the GI50 is 2.29 µM (inactive) in the assay with MDA-N; 2.84 µM (inactive) in the assay on LOX IMVI; 3.74 µM (inactive) in the assay with DU-145; 3.28 µM (inactive) with HCT-116; 18.4 µM (inactive) in the assay with SK-MEL-28; 2.87 µM (inactive) with HCC 2998. The GI50 was 2.45 µM (inactive) in the assay on A498; 3.02 µM (inactive) in the assay on SK-MEL-5; 2.64 µM (inactive) in the assay on HT-29; 2.64 µM (inactive) in the assay on HL-60; 13.9 µM (inactive) in the assay on BT-549; 2.26 µM (inactive) in the assay with PC-3. Moreover, in the assay on ACHN, the GI50 is 5.98 µM (inactive).
On to `CSc1c2c(C)n[nH]c2nn1-c1ccccc1`, for which the GI50 in the assay with OVCAR-3 is 39.3 µM (inactive); with K562 it was 47.5 µM (inactive); in the assay with SF-268, 57.8 µM (inactive); with NCI-H23, > 100 µM (inactive); with RXF 393, 30.6 µM (inactive); with SR, 20.2 µM (inactive). Besides, the GI50 in the assay with NCI/ADR-RES was > 100 µM (inactive); with MDA-N it was > 100 µM (inactive); with LOX IMVI, 24.1 µM (inactive); in the assay with DU-145 it was 88.3 µM (inactive); in the assay on HCT-116 it was 45.4 µM (inactive); with SK-MEL-28 it was > 100 µM (inactive). For the same compound, the GI50 with HCC 2998 was 57.8 µM (inactive); in the assay with A498, 90.8 µM (inactive); with SK-MEL-5 it was > 100 µM (inactive); in the assay on HT-29 it was 36 µM (inactive); in the assay on HL-60, 29.6 µM (inactive); in the assay on BT-549, 80 µM (inactive). Also, in the assay with PC-3, the GI50 was 58.7 µM (inactive).
For `CC(C)Cn1cnc2c(SCc3ccc(Cl)cc3Cl)nc(N)nc21`, the GI50 in the assay on OVCAR-3 was 48.5 µM (inactive); with K562 it was 11.7 µM (inactive); in the assay on SF-268 it was 34.8 µM (inactive); in the assay with NCI-H23, 26.1 µM (inactive); in the assay on RXF 393, 17.9 µM (inactive); in the assay on SR it was 4.38 µM (inactive). The GI50 with NCI/ADR-RES is 26.5 µM (inactive); with MDA-N, 41.1 µM (inactive); in the assay on LOX IMVI, 18.7 µM (inactive); with DU-145 it was > 100 µM (inactive); with HCT-116, 23.2 µM (inactive); in the assay on SK-MEL-28, 57.1 µM (inactive). In addition, the GI50 with HCC 2998 was 13.9 µM (inactive); in the assay on A498, 16.1 µM (inactive); with SK-MEL-5 it was 10 µM (inactive); in the assay with HT-29, 27 µM (inactive); in the assay on BT-549, 29.2 µM (inactive); in the assay with PC-3, 16.5 µM (inactive). The GI50 with ACHN is 20.6 µM (inactive).
